Experimental data as given in patent US5962447A, “Benzoxazines for enhancing synaptic response” (The Regents of the University of California, priority 1998, dated 1999).

Columns and labels:
[1] = metabolite of aniracetam; cited from earlier work
AMPA receptors = experiment: In vitro physiological testing: field EPSPs in rat hippocampal slices (CA1); assay type: cell-based, rat (Sprague-Dawley); details: for +25% Amplitude (estimated concentration required to increase the amplitude of the EPSP to 25% above baseline) / +50% Half-Width (estimated concentration required to increase the width of the EPSP at half-height by 50%): rat hippocampal slice, 35° C., about 15 min perfusion, estimated by interpolation in most cases, extrapolation for others; for in vitro enhancement by rotational restriction vs. corresponding rotomer: figure: +50% half-width, vs. substituted benzoyl piperidine rotomers
Method: In Vitro Physiological Testing
The physiological effects of the compounds of this invention were determined in vitro with slices of rat hippocampus by measuring excitatory responses (field EPSPs) in hippocampal slices maintained in a recording chamber continuously perfused with artificial cerebrospinal fluid (ACSF). During a 15-30 minute interval, the perfusion medium was switched to one containing various concentrations of the test compounds. Responses collected immediately before and at the end of drug perfusion were superimposed in order to calculate both the percent increase in EPSP amplitude and percent increase in the width of the response at one-half the peak height (half-width).
To conduct these tests, the hippocampus was removed from anesthetized, 2 month old Sprague-Dawley rats, and in vitro slices (400 micrometers thick) were prepared and maintained in an interface chamber at 35° C. using conventional techniques. this is the procedure used by Dunwiddie and Lynch, J. Physiol. […] A bipolar nichrome stimulating electrode was positioned in the dendritic layer (stratum radiatum) of the hippocampal subfield CA1 close to the border of subfield CA3.
Current pulses (0.1 msec) through the stimulating electrode activated a population of the Schaffer-commissural (SC) fibers which arise from neurons in the subdivision CA3 and terminate in synapses on the dendrites of CA1 neurons. Activation of these synapses causes them to release the transmitter glutamate. Glutamate binds to the post-synaptic AMPA receptors which then transiently open an associated ion channel and permit a sodium current to enter the postsynaptic cell. This current results in a voltage in the extracellular space (the field excitatory post-synaptic potential or field "EPSP") which is recorded by a high impedance recording electrode positioned in the middle of the stratum radiatum of CA1.
For the experiments summarized in the table below, the intensity of the stimulation current was adjusted to produce half-maximal EPSPs (typically about 1.5-2.0 mV). Paired stimulation pulses were given every 40 seconds with an interpulse interval of 200 msec. The field EPSPs of the second response were digitized and analyzed to determine amplitude, half-width, and response area. If the responses were stable for 15-30 minutes (baseline), test compounds were added to the perfusion lines for a period of about 15 minutes. The perfusion was then changed back to regular ACSF.
Paired-pulse stimulation was used since stimulation of the SC fibers in part activates interneurons which generate an inhibitory postsynaptic potential (IPSP) in the pyramidal cells of CA1. This feed-forward IPSP typically sets in after the EPSP reaches its peak. The feed-forward IPSP accelerates the repolarization and shortens the decay phase of the EPSP, and thus could partially mask the effects of the test compounds. One of the relevant features of the feed-forward IPSP is that it cannot be reactivated for several hundred milliseconds following a stimulation pulse. This phenomenon can be employed to advantage to eliminate IPSP by delivering paired pulses separated by 200 milliseconds and using the second ("primed") response for data analysis.
The compounds of the invention were assayed in the physiological test system described above for the generation of data presented in the table below. […] Values have been estimated by interpolation in most cases, but by extrapolation from determined values for others.

AMPA receptor = experiment: In vitro hippocampal patch preparation, effect on AMPA receptor function; assay type: cell-based; details: Chiralpak AD, hexane/50% isopropanol
Method: This isomer was determined to be the (+)-enantiomer.

[2] = Enhancing memory in rats, 8-arm radial maze learning paradigm; assay type: in vivo, rat; details: for minimal effective dose: Rattus norvegicus, rats, read-out: Behavioral Dose (threshold dose for enhancing memory); for in vivo enhancement by rotational restriction vs. corresponding rotomer: figure: threshold dose

Row | SMILES | +25% Amplitude (estimated concentration required to increase the amplitude of the EPSP to 25% above baseline) (AMPA receptors) [mM] | +50% Half-Width (estimated concentration required to increase the width of the EPSP at half-height by 50%) (AMPA receptors) [mM] | other results
1 | COc1ccc(C(=O)NCCCC(=O)O)cc1 [anisoyl-GABA] |  |  | aniracetam-like effects [1]: no aniracetam-like effects
2 | O=C1c2cc3nccnc3cc2OC2CCCCN12 (racemic) [Compound VII, (R,S)-Pyrazino[2,3-g]-1,2,3,4-tetrahydropyrido[2,1-b] [1,3] benzoxazine-12(4aH)-one] | 0.4 | 0.3 | 
3 | O=C1c2cc3c(cc2OC2CCCN12)OCO3 (single isomer, unassigned) [first eluting enantiomer] |  |  | activity of first eluting enantiomer relative to second eluting enantiomer (effect on EPSP) (AMPA receptors; Chiralcel OD, hexane/10% isopropanol, in vitro hippocampal slice): at least 10 -fold
4 | COc1ccc2c(c1)C(=O)N1CCCC1O2 (racemic) [Compound V, (R,S)-7-Methoxy-2,3-dihydro-1H-pyrrolo[2,1-b][1,3]benzoxazine-9(3aH)-one] | 1 | 0.25 | 
5 | O=C1c2cc3c(cc2OC2CCCN12)OCCO3 (single isomer, unassigned) [second eluting enantiomer] |  |  | activity of second eluting enantiomer relative to first eluting enantiomer (effect on AMPA receptor function) (AMPA receptor): at least 10 -fold
6 | COc1ccc2c(c1)OC1CCCN1C2=O (racemic) [Compound IV, (R,S)-6-Methoxy-2,3-dihydro-1H-pyrrolo[2,1-b][1,3]benzoxazine-9(3aH)-one] | > 1 | 0.4 | 
7 | COc1ccc2c(c1)C(=O)N1CCCC1(C)O2 (racemic) [Compound VIII, (R,S)-7-Methoxy-3a-methyl-2,3-dihydro-1H-pyrrolo[2,1-b][1,3]benzoxazine-9-one] | > 0.3 | 0.4 | 
8 | O=C1c2cc3c(cc2OC2CCCCN12)OCO3 (racemic) [Compound II, (R,S)-1,3-Dioxolo[4,5-g]-1,2,3,4-tetrahydropyrido[2,1-b][1,3]benzoxazine-11(4aH)-one] | 0.3 | 0.2 | 
9 | O=C1c2cc3c(cc2OC2CCCN12)OCCO3 (racemic) [Compound III, (R,S)-1,4-Dioxan[2,3-g]-2,3-dihydro-1H-pyrrolo[2,1-b][1,3]benzoxazine-11(3aH)-one] | > 0.03 | 0.02 | in vitro enhancement by rotational restriction vs. corresponding rotomer (AMPA receptors): marked enhancement; potency in the behavioral task vs. corresponding rotomer and other ampakines of WO 94/02475 [2]: ten times more potent; minimal effective dose [2]: 0.1 mg/kg; in vivo enhancement by rotational restriction vs. corresponding rotomer [2]: marked enhancement
10 | O=C1c2cc3nccnc3cc2OC2CCCN12 (racemic) [Compound VI, (R,S)-Pyrazino[2,3-g]-2,3-dihydro-1H-pyrrolo[2,1-b][1,3]benzoxazine-11(3aH)-one] | 0.1 | 0.1 | in vitro enhancement by rotational restriction vs. corresponding rotomer (AMPA receptors): marked enhancement; minimal effective dose [2]: 2 mg/kg; in vivo enhancement by rotational restriction vs. corresponding rotomer [2]: marked enhancement
11 | O=C1c2cc3c(cc2OC2CCCN12)OCO3 (racemic) [Compound I, (R,S)-1,3-Dioxolo[4,5-g]-2,3-dihydro-1H-pyrrolo[2,1-b][1,3]benzoxazine-10(3aH)-one] | 0.1 | 0.05 | in vitro enhancement by rotational restriction vs. corresponding rotomer (AMPA receptors): marked enhancement; minimal effective dose [2]: 1 mg/kg; in vivo enhancement by rotational restriction vs. corresponding rotomer [2]: marked enhancement
